According to BindingDB's records for doi:10.1021/jm9905054 (Eisai, 2000):
Where a name gives a salt, the structure may show the parent alone.

Experiment: 50% inhibitory concentration against phosphodiesterase 5 (PDE5) from porcine platelets
For `COc1ccc(CNc2nnc(Cl)c3ccc(C#N)cc23)cc1Cl`, the IC50 was 3 nM.
`COc1ccc(CNc2nnc(N3CC[S+]([O-])CC3)c3ccc(C#N)cc23)cc1Cl` gave an IC50 of 0.7 nM.
Work on `COc1ccc(CNc2nnc(N3CCC(C(N)=O)CC3)c3ccc(C#N)cc23)cc1Cl` [1-[4-(3-Chloro-4-methoxy-benzylamino)-6-cyano-phthalazin-1-yl]-piperidine-4-carboxylic acid amide; hydrochloride] yielded an IC50 of 0.5 nM.
With `COc1ccc(CNc2nnc(N3CCC(C(=O)O)CC3)c3ccc(C#N)cc23)cc1Cl` [1-[4-(3-Chloro-4-methoxy-benzylamino)-6-cyano-phthalazin-1-yl]-piperidine-4-carboxylic acid; hydrochloride] the IC50 was 3.1 nM.
`COc1ccc(CNc2nnc(N3CCC(O)CC3)c3ccc([N+](=O)[O-])cc23)cc1Cl` [1-[4-(3-Chloro-4-methoxy-benzylamino)-6-nitro-phthalazin-1-yl]-piperidin-4-ol; hydrochloride] gave an IC50 of 0.3 nM.
Molecule `COc1ccc(CNc2nnc(N3CCC(O)CC3)c3ccc(C(F)(F)F)cc23)cc1Cl` [1-[4-(3-Chloro-4-methoxy-benzylamino)-6-trifluoromethyl-phthalazin-1-yl]-piperidin-4-ol; hydrochloride] has an IC50 of 0.73 nM.
With `COc1ccc(CNc2nnc(N3CCC(O)CC3)c3cc(Cl)c(Cl)cc23)cc1Cl` [1-[6,7-Dichloro-4-(3-chloro-4-methoxy-benzylamino)-phthalazin-1-yl]-piperidin-4-ol; hydrochloride] the IC50 was 0.86 nM.
Work on `COc1ccc(CNc2nnc(N3CCC(O)CC3)c3ccc(Cl)cc23)cc1Cl` [1-[6-Chloro-4-(3-chloro-4-methoxy-benzylamino)-phthalazin-1-yl]-piperidin-4-ol; hydrochloride] yielded an IC50 of 4.4 nM.
`COc1ccc(CNc2nnc(N3CCS(=O)(=O)CC3)c3ccc(C#N)cc23)cc1Cl` [4-(3-Chloro-4-methoxy-benzylamino)-1-(1,1-dioxo-1lambda*6*-thiomorpholin-4-yl)-phthalazine-6-carbonitrile; hydrochloride] showed an IC50 of 0.79 nM.
In the case of `COc1ccc(CNc2nnc(N3CC=CCC3)c3ccc(C#N)cc23)cc1Cl` [4-(3-Chloro-4-methoxy-benzylamino)-1-(3,6-dihydro-2H-pyridin-1-yl)-phthalazine-6-carbonitrile; hydrochloride], the IC50 is reported as 1.9 nM.
Work on `COc1ccc(CNc2nnc(N3CCCC(O)C3)c3ccc(C#N)cc23)cc1Cl` (configuration not stated) [4-(3-Chloro-4-methoxy-benzylamino)-1-(3-hydroxy-piperidin-1-yl)-phthalazine-6-carbonitrile; hydrochloride] yielded an IC50 of 1.2 nM.
For `COc1ccc(CNc2nnc(NCCCO)c3ccc(C#N)cc23)cc1Cl` [4-(3-Chloro-4-methoxy-benzylamino)-1-(3-hydroxy-propylamino)-phthalazine-6-carbonitrile; hydrochloride], the IC50 was 2.6 nM.
Work on `COc1ccc(CNc2nnc(N3CCC(C)(O)CC3)c3ccc(C#N)cc23)cc1Cl` [4-(3-Chloro-4-methoxy-benzylamino)-1-(4-hydroxy-4-methyl-piperidin-1-yl)-phthalazine-6-carbonitrile; hydrochloride] yielded an IC50 of 0.7 nM.
`COc1ccc(CNc2nnc(N[C@H]3CC[C@H](O)CC3)c3ccc(C#N)cc23)cc1Cl` [4-(3-Chloro-4-methoxy-benzylamino)-1-(4-hydroxy-cyclohexylamino)-phthalazine-6-carbonitrile; hydrochloride] gave an IC50 of 12 nM.
`COc1ccc(CNc2nnc(N3CCC(O)CC3)c3ccc(C(N)=O)cc23)cc1Cl` [4-(3-Chloro-4-methoxy-benzylamino)-1-(4-hydroxy-piperidin-1-yl)-phthalazine-6-carboxylic acid amide; hydrochloride] showed an IC50 of 2 nM.
`COc1ccc(CNc2nnc(N3CCC(O)CC3)c3ccc(C(=O)O)cc23)cc1Cl` [4-(3-Chloro-4-methoxy-benzylamino)-1-(4-hydroxy-piperidin-1-yl)-phthalazine-6-carboxylic acid; hydrochloride] showed an IC50 of 600 nM.
Work on `COc1ccc(CNc2nnc(N3CCC(CO)CC3)c3ccc(C#N)cc23)cc1Cl` [4-(3-Chloro-4-methoxy-benzylamino)-1-(4-hydroxymethyl-piperidin-1-yl)-phthalazine-6-carbonitrile; hydrochloride] yielded an IC50 of 0.93 nM.
With `COc1ccc(CNc2nnc(N3CCC(OC)CC3)c3ccc(C#N)cc23)cc1Cl` [4-(3-Chloro-4-methoxy-benzylamino)-1-(4-methoxy-piperidin-1-yl)-phthalazine-6-carbonitrile; hydrochloride] the IC50 was 1.1 nM.
With `COc1ccc(CNc2nnc(N3CCN(C)CC3)c3ccc(C#N)cc23)cc1Cl` [4-(3-Chloro-4-methoxy-benzylamino)-1-(4-methyl-piperazin-1-yl)-phthalazine-6-carbonitrile; hydrochloride] the IC50 was 0.95 nM.
Molecule `COc1ccc(CNc2nnc(N3CCC(=O)CC3)c3ccc(C#N)cc23)cc1Cl` [4-(3-Chloro-4-methoxy-benzylamino)-1-(4-oxo-piperidin-1-yl)-phthalazine-6-carbonitrile; hydrochloride] has an IC50 of 0.53 nM.
For `COc1ccc(CNc2nnc(N3CCN(c4ccccn4)CC3)c3ccc(C#N)cc23)cc1Cl` [4-(3-Chloro-4-methoxy-benzylamino)-1-(4-pyridin-2-yl-piperazin-1-yl)-phthalazine-6-carbonitrile; hydrochloride], the IC50 was 11 nM.
With `COc1ccc(CNc2nnc(N3CCN(c4ncccn4)CC3)c3ccc(C#N)cc23)cc1Cl` [4-(3-Chloro-4-methoxy-benzylamino)-1-(4-pyrimidin-2-yl-piperazin-1-yl)-phthalazine-6-carbonitrile; hydrochloride] the IC50 was 19 nM.
Work on `COc1ccc(CNc2nnc(N3CCN(CCO)CC3)c3ccc(C#N)cc23)cc1Cl` [4-(3-Chloro-4-methoxy-benzylamino)-1-[4-(2-hydroxy-ethyl)-piperazin-1-yl]-phthalazine-6-carbonitrile; hydrochloride] yielded an IC50 of 1.7 nM.
Work on `COc1ccc(CNc2nnc(N3CCC(CCO)CC3)c3ccc(C#N)cc23)cc1Cl` [4-(3-Chloro-4-methoxy-benzylamino)-1-[4-(2-hydroxy-ethyl)-piperidin-1-yl]-phthalazine-6-carbonitrile; hydrochloride] yielded an IC50 of 0.7 nM.
With `COc1ccc(CNc2nnc(NCc3ccccn3)c3ccc(C#N)cc23)cc1Cl` [4-(3-Chloro-4-methoxy-benzylamino)-1-[(pyridin-2-ylmethyl)-amino]-phthalazine-6-carbonitrile; hydrochloride] the IC50 was 2.7 nM.
Molecule `COc1ccc(CNc2nnc(NCc3cccnc3)c3ccc(C#N)cc23)cc1Cl` [4-(3-Chloro-4-methoxy-benzylamino)-1-[(pyridin-3-ylmethyl)-amino]-phthalazine-6-carbonitrile; hydrochloride] has an IC50 of 6.8 nM.
With `COc1ccc(CNc2nnc(NCc3ccncc3)c3ccc(C#N)cc23)cc1Cl` [4-(3-Chloro-4-methoxy-benzylamino)-1-[(pyridin-4-ylmethyl)-amino]-phthalazine-6-carbonitrile; hydrochloride] the IC50 was 6.7 nM.
In the case of `COc1ccc(CNc2nnc(-n3ccnc3)c3ccc(C#N)cc23)cc1Cl` [4-(3-Chloro-4-methoxy-benzylamino)-1-imidazol-1-yl-phthalazine-6-carbonitrile; hydrochloride], the IC50 is reported as 1.5 nM.
In the case of `COc1ccc(CNc2nnc(N3CCNCC3)c3ccc(C#N)cc23)cc1Cl` [4-(3-Chloro-4-methoxy-benzylamino)-1-piperazin-1-yl-phthalazine-6-carbonitrile; hydrochloride], the IC50 is reported as 1.2 nM.
`COc1ccc(CNc2nnc(N3CCCCC3)c3ccc(C#N)cc23)cc1Cl` [4-(3-Chloro-4-methoxy-benzylamino)-1-piperidin-1-yl-phthalazine-6-carbonitrile; hydrochloride] gave an IC50 of 0.55 nM.
With `COc1ccc(CNc2nnc(N3CCSCC3)c3ccc(C#N)cc23)cc1Cl` [4-(3-Chloro-4-methoxy-benzylamino)-1-thiomorpholin-4-yl-phthalazine-6-carbonitrile; hydrochloride] the IC50 was 0.32 nM.
`COc1ccc(CNc2nnc(N3CCC(NS(C)(=O)=O)CC3)c3ccc(C#N)cc23)cc1Cl` [N-{1-[4-(3-Chloro-4-methoxy-benzylamino)-6-cyano-phthalazin-1-yl]-piperidin-4-yl}-methanesulfonamide; hydrochloride] gave an IC50 of 14 nM.
